According to paper PMC5241873, “The clinically approved antiviral drug sofosbuvir inhibits Zika virus replication” (Scientific Reports, 2017):

Columns and labels:
[1] = test system: T1, ZIKV RNA polymerase (ZVRP), partially purified from ZIKV-infected BHK-21 cells; assay: RdRp assay, labelled UTP incorporation on ZIKV RNA, ALPHA detection; assay type: biochemical, Zika virus; conditions: 0.4 mM each ATP, GTP, CTP and labelled UTP; 3 mM MgCl2; pH 7.3; 30 °C; 1 h; partially purified enzyme
T1 construct: gene NS5; mature NS5 from the genome polyprotein; native, partially purified from infected BHK-21 cells (100,000 x g supernatant, DEAE- and phospho-cellulose)

[2] = test system: T2, recombinant ZVRP (C-terminal portion); assay: as above; assay type: biochemical, Zika virus; conditions: 0.4 mM each ATP, GTP, CTP and labelled UTP; 3 mM MgCl2; pH 7.3; 30 °C; 1 h
T2 construct: gene NS5; pET-41b+ BamHI/SacI, N-terminal GST tag, E. coli BL21; B3U3M3 is printed for the 3D model only

Structure (SMILES)	IC50 [1] [nM]	IC50 [2] [nM]
Cc1cn([C@H]2C[C@H](N=[N+]=[N-])[C@@H](COP(=O)(O)OP(=O)(O)OP(=O)(O)O)O2)c(=O)[nH]c1=O [AZT-TP, AZT triphosphate]	> 10000	> 10000
NC(=O)c1ncn([C@@H]2O[C@H](COP(=O)(O)OP(=O)(O)OP(=O)(O)O)[C@@H](O)[C@H]2O)n1 [RTP, ribavirin triphosphate]	210 ± 60	620 ± 50
C[C@@]1(F)[C@H](O)[C@@H](COP(=O)(O)OP(=O)(O)OP(=O)(O)O)O[C@H]1n1ccc(=O)[nH]c1=O [STP, β-d-2′-deoxy-2′-α-fluoro-2′-β-C-methyluridine triphosphate]	380 ± 30	610 ± 80
